Values after ≈ are worked out from the molar mass of the structure shown. Starred links: 1 amine or outer side, 2 acyl side, 3 side chain; linkers in the order of their positions; H or OH if unused. Non-standard residues stand in square brackets, D forms with d. Residues, ends and D or L forms follow the SMILES beside them. *: point of attachment. Sta = CC(C)C[C@H](N)[C@@H](O)CC(=O)O; Isovaleryl = CC(C)CC(=O)*; Nle = CCCC[C@H](N)C(=O)O; CO = O=C([*:1])[*:2]
Columns and labels:
[1] = test system: Lucilia cuprina larvae; assay: Growth and survival of first instar sheep blowfly larvae on culture medium with inhibitor; type: in vivo; conditions: for Effect on larval growth, summary in words: Example 1, Table 1.2
[2] = test system: Heliothis punctigens larvae; assay: Growth and survival of cotton budworm larvae fed an artificial diet; type: in vivo; conditions: for % Alive / Average Laval Weight: 10 days; for % Alive: control 70.0; for Average Laval Weight: control 165.4
Description: 1. The Haricot beans were cooked in a microwave for 40 minutes. 2. Agar was added to the hot water and stirred on a hot plate until almost boiling. 3. The haricot beans, agar mix, yeast and wheat germ was blended in an electric mixer for 3 minutes. 4. When the temperature has dropped to 60°C., the acids were added and mixed with the media. […] Inhibitor solutions or an equal volume of water were placed into sterilized glass tubes at designated concentrations. The artificial media was added to each tube (1.5 ml) using a sterile 10 ml syringe. First instar Heliothis punctigens larvae (1 larvae per tube) were added to the glass tubes and the tubes were capped. The tubes were incubated for 10 days at 25° C. The larvae were killed by placing the glass tubes at -70° C. for 24 hours, and then individually weighed. Percentage inhibition was calculated by comparison to control larvae.

[3] = test system: Ctenocephalides felis; assay: Development of cat flea eggs in dried blood diets; type: in vivo; conditions: Day 16
Description: Blood was collected from the jugular vein of a five year old merino sheep that had not been treated with an ectoparasitic agent for 18 months. The blood was collected into a 100 ml plastic bottle containing 0.8 ml of heparin and was maintained at 4° C. Inhibitors were pre-weighed into sterile 5 ml plastic vials and 4.5 ml of blood added. The samples were mixed, placed at -70° C. for 24 hours, then freeze-dried. The freeze-dried samples were sieved through a stainless steel 63 micron sieve, and placed into sterile 5 ml plastic vials (0.15 g/per tube). Four flea eggs were placed into each vial, and a sheet of tissue paper fastened by an elastic band was fitted to the top of each vial. The vials were incubated at 25° C. and 70-80% R H for 6 days. Vermiculite was then added to each vial to provide a supporting medium for the fleas to pupate and the tubes incubated at 25° C. and 70-80% R H, for a further 10 days. Ten control vials and three vials of each treatment were tested.
At the conclusion of the incubation period the vials were placed at -20° C. for 24 hours to kill the fleas. The number of eggs hatched and the life-cycle state was recorded.

[4] = test system: Teleogryllus commodus; assay: Mortality of black field cricket nymphs on treated cabbage leaf disks; type: in vivo; conditions: after 7 days
Description: (i) Stock solutions of inhibitors and control solutions were prepared as aqueous solutions or suspensions as outlined in Table 6.1.
(ii) Mortality was assessed by commencing the study with 1st instar nymphs.
(iii) Cabbage leaf disks (5×8 mm diameter disks/treatment) were smeared with 100 μl of inhibitor or control stock solutions and allowed to dry. Disks were placed singly in 40 mm petri dishes, together with a moist cotton wool pas as water supply and a piece of fluted plastic for shelter.
(iv) Ten nymphs were placed on each disc and the dishes incubated at 25° C.
(v) Mortality was assessed daily and any dead individuals removed.

[5] = test system: O. surinamensis larvae; assay: Weight reduction of Oryzaephylus surinamensis larvae in treated flour; type: in vivo
Description: Insects were cultured in cleaned, ground and sieved wholemeal flour made from organic wheat. Inhibitors from bottles of pre-weighed material were dry-mixed with the flour and residual inhibitor rinsed from bottles with a small volume of water. Rinse water was added to the flour and the mixture re-ground. The impregnated flour was transferred to a 20 mL vial and mixed thoroughly by shaking and inverting.
Adults of T. castaneum were allowed to oviposit on flour, eggs were sifted from the flour and transferred one by one with a single hair to microwell tubes containing a small amount of flour. Each level of treatment was performed in triplicated using 32 wells/replicate. Assays were performed in triplicated. Cultures were incubated at 30° C. and 55% R H.
The bioassay for this insect was outlined for T. castaneum, except incubations were conducted at 32.5° C. and 70% R H. After 8 days the insects were sieved from the flour and weighed.

[6] = test system: Colorado potato beetle larvae; conditions: cited from earlier work
[7] = test system: Bovicola ovis (Hartley strain); conditions: cited from earlier work
[8] = Heliothis, 240 h, read-out: % Growth Inhibition
[9] = Lucilia cuprina, first instar larvae, 2 mM
[10] = 192 h, 2.5 mM, 8 days, relative to untreated larvae, read-out: Percentage Growth Inhibition
[11] = 192 h, 5 mM, 8 days, relative to untreated larvae, read-out: Percentage Growth Inhibition
[12] = 192 h, 10 mM, 8 days, relative to untreated larvae, read-out: Percentage Growth Inhibition
[13] = first instar larvae, tested at 1, 2, 5, 10 mM

With CC(C)C[C@H](N)[C@](O)(Cc1c[nH]cn1)C(=O)O [Leuhistin, (2R,3S)-3-amino-2-hydroxy-2-(lII-imidazole-4-methyl)-5-methylhexanoic acid] the “Effect on larval growth, summary in words” value (“Effect on larval growth” for short) [1] was “effective growth inhibitors” and the “Growth Inhibition” value ([1]; first instar larvae, 5 mM) was 65%.

With CC(=O)N[C@@H](CC(C)C)C(=O)N[C@@H](CC(C)C)C(=O)N[C@H](C=O)CCCNC(=N)N [Leupeptin, Ac-Leu-Leu-Arginyl.1/2H2 SO4 H2 O] the “% Alive” value ([2]; 2.5 mM) was 16.6%, the “Average Laval Weight” value ([2]; 2.5 mM) was 16.6 mg and the “% Alive” value ([2]; 5.0 mM) was 33.3%. For the same molecule, the “Average Laval Weight” value ([2]; 5.0 mM) was 17.0 mg, the inhibition at 2500 µM [2, 8] was 90% and the inhibition at 5000 µM [2, 8] was 89.7%. The “Percentage of Fleas Progressing Through to Pupation” value (from here on “Percentage … to Pupation”) ([3]; 1.70 mg in 4.5 ml of blood) was 0%, the “Percentage … to Pupation” value ([3]; 3.40 mg in 4.5 ml of blood) was 0% and the “Effect on larval growth” value [1] was “intermediate inhibition”. It also gave an inhibition at 2000 µM [1, 9] of 71% and an inhibition at 10000 µM ([1]; Lucilia cuprina, first instar larvae, 10 mM) of 80%.

For CC(C)[C@H](NC(=O)[C@H](CCCNC(=N)N)NC(=O)N[C@@H](Cc1ccccc1)C(=O)O)C(=O)N[C@H](C=O)CCCNC(=N)N [Antipain] ({Phe-CO}-Arg-Val-Arg-aldehyde), the “Mortality (class)” value ([4]; 2.5-10 mM) was “None (none/low, 10-20% mortality)”, the inhibition at 2500 µM [5, 10] was -10% and the inhibition at 5000 µM [5, 11] was -2%. For the same molecule, the inhibition at 10000 µM [5, 12] was -2%, the inhibition at 2500 µM ([1]; Lucilia cuprina, first instar larvae, 2.5 mM, unit inferred) was 45.5% and the inhibition at 5000 µM ([1]; Lucilia cuprina, first instar larvae, 5 mM, unit inferred) was 63.2%.

With CCCC[C@@H](C=O)NC(=O)[C@H](CC(C)C)NC(=O)[C@H](CC(C)C)NC(C)=O [Calpain inhibitor I, N-Acetyl-Leu-Ley-norleucinal] (Ac-Leu-Leu-[Nle]-aldehyde) the “Growth Inhibition” value ([1]; first instar larvae, 2 mM) was 71%.

For O=BOB(O)OB(O)OB=O [Borax], the Mortality ([4]; 5-20 mM) was 93%, the “Mortality (class)” value ([4]; 5-20 mM) was “High (high 41-100%)” and the inhibition at 5000 µM [5, 11] was -5%. It also gave an inhibition at 10000 µM [5, 12] of 39% and an inhibition at 20000 µM ([5]; 192 h, 20 mM, 8 days, relative to untreated larvae, read-out: Percentage Growth Inhibition) of 68%.

In the case of CC(C)CC(=O)N[C@H](C(=O)N[C@H](C(=O)N[C@@H](CC(C)C)[C@@H](O)CC(=O)N[C@@H](C)C(=O)N[C@@H](CC(C)C)[C@@H](O)CC(=O)O)C(C)C)C(C)C [Pepstatin] (Isovaleryl-VV[Sta]A[Sta]-OH), the “Growth retardation” value ([6]; fed on potato leaves) is given as “only a small response”, the “Effect on larval growth” value [1] is given as “ineffectiveness” and the “Growth Inhibition” value ([1]; first instar larvae, tested at 1, 2, 10 mM) is given as “No inhibition detected”.

In the case of CC(C)C[C@H](NC(=O)[C@H]1O[C@@H]1C(=O)O)C(=O)NCCCCN=C(N)N (relative stereo) [E64, L-trans-epoxy-succinyl-leucylamido-(4-guanidino-butane)], the Plateau in mortality ([6]; 1000 μg/ml application level) is given as 74-85%, the “Threshold level for larval growth reduction” value ([6]; fed on potato leaves) is given as 50 µg/mL and the “Effect on larval growth” value [1] is given as “ineffective”. The “Growth Inhibition” value ([1]; first instar larvae, tested at 1, 2, 5 mM) was “No inhibition detected”.

In the case of CC[C@H](C)[C@H](N)C(=O)N1CCC[C@H]1C(=O)N[C@H](C(=O)O)[C@@H](C)CC [Diprotin, H-Ile-Pro-Ile-OH], the “Effect on larval growth” value [1] is reported as “ineffective” and the “Growth Inhibition” value [1, 13] is reported as “No inhibition detected”.

With Casein the “Percentage Growth Inhibition” value ([5]; 10 mg/ml, 8 days) was -5%, the “Percentage Growth Inhibition” value ([5]; 20 mg/ml, 8 days) was 10% and the “Percentage Growth Inhibition” value ([5]; 40 mg/ml, 8 days) was -2%.

In the case of Cl.NCCc1ccc(S(=O)(=O)F)cc1 [PEFABLOC, 4-(2-aminoethyl)-benzenesulfonylfluoride hydrochloride], the “Mortality (class)” value ([4]; 2.5-10 mM) is reported as “Medium (medium 21-40%)”, the “Percentage … to Pupation” value ([3]; 1.10 mg in 4.5 ml of blood) is reported as 0% and the “Percentage … to Pupation” value ([3]; 2.20 mg in 4.5 ml of blood) is reported as 0%. The “Percentage Growth Inhibition” value ([5]; 2.5 mM, 8 days, relative to untreated larvae) was 49%, the “Percentage Growth Inhibition” value ([5]; 5 mM, 8 days, relative to untreated larvae) was 61% and the “Percentage Growth Inhibition” value ([5]; 10 mM, 8 days, relative to untreated larvae) was 79%. For the same molecule, the “Growth Inhibition” value ([1]; first instar larvae, 10 mM) was 72% and the “Growth Inhibition” value ([1]; first instar larvae, 50 mM) was 92%.

In the case of “tosyl-L-phenylalanine chloromethyl ketone [TPCK]”, the “Growth Inhibition” value [1, 13] is reported as “No inhibition detected”.

CC(C)C[C@H](NC(=O)[C@@H](O)[C@H](N)Cc1ccccc1)C(=O)O [Bestatin] gave an inhibition at 1250 µM ([5]; 192 h, 1.25 mM, 8 days, relative to untreated larvae, read-out: Percentage Growth Inhibition) of -5%, an inhibition at 2500 µM [5, 10] of 2% and an inhibition at 5000 µM [5, 11] of -4%. The “Growth inhibition, summary in words” value ([5]; text summary of Table 9.1) was “ineffective”, the “Effect on larval growth” value [1] was “effective growth inhibitors” and the inhibition at 5000 µM ([1]; Lucilia cuprina, first instar larvae, 5 mM) was 63%.

With CC(C)C[C@@H](N)[C@H](O)C(=O)N[C@H](C(=O)N[C@H](C(=O)N[C@@H](CC(=O)O)C(=O)O)C(C)C)C(C)C [Amastatin, ((2S,3R)-3-amino-2-hydroxy-5-methyl-hexanoyl)-Val-Val-Asp-OH] the “Effect on larval growth” value [1] was “effective growth inhibitors” and the inhibition at 2000 µM [1, 9] was 60%.

In the case of “tosyl-L-lysine chloromethyl ketone [TLCK]”, the “Effect on larval growth” value [1] is reported as “killing the larvae”, the “Larval survival” value ([1]; first instar larvae, 5 mM) is reported as “All killed” and the “Larval survival” value ([1]; first instar larvae, 10 mM) is reported as “All killed”.

With CC(C)CC(N)CS [L-leucinethiol, 2-amino-4-methyl-1-pentanethiol] the “Effect on larval growth” value [1] was “effective growth inhibitors”, the inhibition at 1000 µM ([1]; Lucilia cuprina, Table 2.2, 1.00 mM) was 21.4% and the inhibition at 2000 µM ([1]; Lucilia cuprina, Table 2.2, 2.00 mM) was 73.1%. The inhibition at 2000 µM [1, 9] was 47%, the “Average Larval Weight” value ([1]; Table 2.2, 1.00 mM, control 10.26) was 8.06 10^-4 g and the “Average Larval Weight” value ([1]; Table 2.2, 2.00 mM, control 10.26) was 2.76 10^-4 g. The “% Growth Incubation” value ([1]; Table 2.3, 1.0 mM) was 67.2%, the “Average Larval Weight” value ([1]; Table 2.3, 1.0 mM, control 9.08) was 2.98 10^-4 g and the “% Growth Incubation” value ([1]; Table 2.3, 2.0 mM) was 86.6%. The “Average Larval Weight” value ([1]; Table 2.3, 2.0 mM, control 9.08) was 1.22 10^-4 g and the “Larval survival” value ([1]; first instar larvae, 5 mM) was “All killed”.

In the case of CCOP(=S)(OCC)Oc1cc(C)nc(C(C)C)n1 [Diatinon], the LC50 ([7]; Hartley strain lice) is given as 5.31 µg/mL (≈ 17.4 µM), the LC95 ([7]; Hartley strain lice) is given as 19.7 µg/mL (≈ 64.7 µM) and the “Resistance Factor” value ([7]; Hartley strain, (Singapore)) is given as 1.4.

In the case of CC1(C)C(C=C(Cl)Cl)C1C(=O)OC(C#N)c1cccc(Oc2ccccc2)c1 (stereo not drawn) [Cypermethrin], the LC95 ([7]; Hartley strain lice) is listed as 475 µg/mL (≈ 1140 µM).
